Experimental data taken from patent publication US9738614B2, “Malignant and non-malignant disease treatment with Ras antagonists” (PISCES THERAPEUTICS, LLC, priority 2011, dated 2017).

Experiments:
Format in all cases: cell-based
[1] = system: hematopoietic progenitor cells (cord blood low density cells); assay: Human hematopoietic progenitor cell toxicity (colony assay); details: 12 days; 25 and 2.5 μM for compound (3), 2.5 and 0.25 μM for compound (5)
Protocol: Cord blood low density cells were plated at 1×10^5 cells per plate in 1 mL complete methylcellulose in the presence of each test compound (3) and (5) and incubated for 12 days in a CO2 incubator. Colony-forming unit-granulocyte (CFU-GM), burst-forming unit-erythroid (BFU-E), and mixed colonies were counted under an inverted microscope. […] The test compounds were not toxic to the hematopoietic progenitor cells.

NF-1+/- mast cells = assay: NF-1+/- mast cell proliferation (3H-thymidine incorporation); details: 0-12.5 μM, 24 hours after SCF stimulation (FIG. 4B)
Protocol: Purified populations of NF-1+/−mast cells were stimulated with a maximum stimulating concentration of stem cell factor (SCF) in the presence of a control or compound (5) at concentrations of 10-15 μM. The activated, GTP-bound form of Ras (Ras-GTP) was measured 3 minutes subsequently using Western blot analysis. […] In parallel experiments, mast cell proliferation was measured using 3H-thymidine incorporation 24 hours after SCF stimulation in the presence of a control or compound (5) at concentrations of 0-12.5 μM. […] Each asterisk in FIG. 4B represents a statistical difference relative to the control using analysis of variance. (Yang, Feng-Chun, et. al. J Clin Invest 2003, 112(12), 1851-1861; Yang, Feng-Chun, et. al. Hum Mol Genet 2006, 15(11), 1921-1930).

LAM cells = assay: IC50 assay with lymphangioleiomyomatosis (LAM) cells; details: Homo sapiens, 0.1 to 50 μM, read-out: half-maximal inhibition of viability
Protocol: U87MG cells were seeded in a 24-well plate, 5000 cells per well, and incubated overnight at 37° C. in serum-free media. The next day they were treated in triplicate with 50 and 100 μM of each test compound (1), (2), (3), (4), and (5) and the reference compound FTS. After five days, the cells were trypsinized (0.5%), stained with trypan blue, and counted to determine the cell number per well. The half-maximal inhibitory concentration (IC50) values were calculated using Multiplex Reader-Fit software made by MiraiBio Group, Hitachi Solutions America, Ltd. In a typical experiment, the control wells averaged 138,000 cells. The results are presented graphically in FIG. 1. The test compounds at 50 μM allowed the following U87MG cell proliferation compared to control: compound (1)—37%, compound (2)—18%, compound (3)—10%, compound (4)—40%, and compound (5)—0%. The reference compound FTS at 50 μM allowed 7% cell proliferation compared to control.
Human lymphangioleiomyomatosis (LAM) cells were subjected to an IC50 assay similar to Example 6 above.

Compound: CC(C)=CCC/C(C)=C/CC/C(C)=C/CSc1ccccc1C1=NCCN1 [compound (5), 2-(2-{[(2E,6E)-3,7,11-trimethyldodeca-2,6,10-trien-1-yl]sulfanyl}phenyl)-4,5-dihydro-1H-imidazole]
- toxicity to hematopoietic progenitor cells (CFU-GM, BFU-E, mixed colonies) [1]: not toxic
- mast cell proliferation relative to the control (NF-1+/- mast cells): reduced
- IC50 (LAM cells): 4 µM
